Measured values as given in patent US20250188059A1, “NOVEL COMPOUND AND USE THEREOF FOR INHIBITING CHECKPOINT KINASE 2” (ARUM THERAPEUTICS INC, priority 2022, published 2025).
Like-named read-outs stand apart in the source and are kept apart here.

Assays:
[1] = tested on: human breast cancer cell line MCF-7; assay: Cancer cell growth inhibition test (CellTiter-Glo); assay type: cell-based; settings: MCF-7, 72 hours
Description: The human breast cancer cell line MCF-7 was treated with trypsin and harvested. The number of cells was counted, and about 3000 cells/80 μl per well were inoculated into a 96 well plate (Corning) and then incubated in a 37° C. incubator for 24 hours. Thereafter, the example compounds were diluted in a culture solution at various concentrations, and each well was treated with 20 μl and stored in a cell culture incubator for 72 hours. In the case of the group administered in combination, the example compounds and cisplatin or doxorubicin were diluted in a culture solution at various concentrations, and each well was treated with 20 μl. After 72 hours, each well was treated with 30 μl of CellTiter-Glo solution (Promega), and the luminescence was read on a Victor3 multi label reader (PerkinElmer).
Relative viability (%)=(value of each test well/value of well treated with DMSO alone)×100
The results obtained for each concentration for each example compound were the average values obtained from three wells, and PRIZM software was used for analysis of the results.

[2] = biological target: Chk2 kinase (Homo sapiens (Human), UniProt O96017); assay: Chk2 kinase inhibitory activity (LanthaScreen TR-FRET); assay type: biochemical; settings: graded
Description: The compounds of Examples 1 to 66 were diluted at various concentrations and transferred to a 384-well plate by 5 μl, and 10 μl of a mixed solution (2×) of Chk1 kinase (Thermo, P3040) or Chk2 kinase (Thermo, PV3367) and a substrate (Thermo, PV3508) was added to wells treated with the compounds. 5 μl of an ATP solution at a 4× concentration was added to the test well and reacted at room temperature for 1 hour. 20 μl of LanthaScreen Terbium-CREB p-Ser 133 antibody (Thermo, PV3542) was added to the reaction well and incubated at room temperature for 30 minutes. Conversion data was measured by an EnVision 2014 multi label reader (PerkinElmer). The activity for each concentration was determined by the ratio (FRET ratio=FR) of the value obtained by dividing the value at 520 nm by the value at 490 nm among the emission wavelength values for each wavelength (Em520/Em490). The results obtained for each concentration of the compounds were the average values obtained in two wells, and the IC50 values of the compounds were calculated using PRIZM software for analysis of the results. IC50 in Table 7 was graded as follows.

[3] = graded, read-out: Celltiter glo analysis (IC50)
[4] = Homo sapiens, MCF7, 72 h, graded, read-out: Celltiter glo analysis (IC50)
[5] = Homo sapiens, MCF7, 72 h, alone, read-out: Administered alone (IC50)

Chain of Chk2 kinase (O96017 whole entry): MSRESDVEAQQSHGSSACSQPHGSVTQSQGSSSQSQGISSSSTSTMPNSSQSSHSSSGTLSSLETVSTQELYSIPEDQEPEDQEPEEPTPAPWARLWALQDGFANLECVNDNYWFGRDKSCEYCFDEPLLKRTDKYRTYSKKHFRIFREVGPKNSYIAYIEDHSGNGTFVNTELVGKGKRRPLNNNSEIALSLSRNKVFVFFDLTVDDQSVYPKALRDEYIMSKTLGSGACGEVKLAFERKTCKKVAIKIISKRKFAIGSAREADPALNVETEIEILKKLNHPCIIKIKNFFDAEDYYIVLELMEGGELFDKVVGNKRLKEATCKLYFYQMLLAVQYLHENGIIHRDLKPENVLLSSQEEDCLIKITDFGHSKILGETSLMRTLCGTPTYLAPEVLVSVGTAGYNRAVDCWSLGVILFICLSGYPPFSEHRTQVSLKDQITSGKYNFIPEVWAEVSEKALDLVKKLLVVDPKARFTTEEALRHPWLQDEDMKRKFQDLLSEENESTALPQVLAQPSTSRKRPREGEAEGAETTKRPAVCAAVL

| IC50 [2] [µM] | IC50 [1, 4] [µM] | Structure (SMILES) | also measured |
| --- | --- | --- | --- |
| ≤ 0.01 | – | CC1(C)Cc2c(-c3cccc(-c4cnc(N)c(C(=O)N[C@H]5CCC6(CC6)NC5)n4)c3)cnn2C1 [Example 51, (S)-3-amino-6-(3-(5,5-dimethyl-5,6-dihydro-4H-pyrrolo[1,2-b]pyrazol-3-yl)phenyl)-N-(4-azaspiro[2.5]octan-6-yl)pyrazine-2-carboxamide] | IC50 [1, 3]: 10 to 100 µM |
| 0.01 to 0.1 | 10 to 100 | Nc1ncc(-c2cc(-c3cnn(CC(F)(F)F)c3)ccc2F)nc1C(=O)N[C@@H]1CNC[C@H]1O [Example 11, 3-amino-6-(2-fluoro-5-(1-(2,2,2-trifluoroethyl)-1H-pyrazol-4-yl)phenyl)-N-((3R,4R)-4-hydroxypyrrolidin-3-yl) pyrazine-2-carboxamide] | – |
| ≤ 0.01 | > 100 | CC1(C)Cc2c(-c3cc(-c4cnc(N)c(C(=O)N[C@@H]5CNC[C@H]5O)n4)ccn3)cnn2C1 [Example 54, 3-amino-6-(2-(5,5-dimethyl-5,6-dihydro-4H-pyrrolo[1,2-b]pyrazol-3-yl)pyridin-4-yl)-N-((3R,4R)-4-hydroxypyrrolidin-3-yl)pyrazine-2-carboxamide] | – |
| ≤ 0.01 | 10 to 100 | CC1(C)Cc2c(-c3ccc(O)c(-c4cnc(N)c(C(=O)N[C@@H]5CNC[C@@H](F)C5)n4)c3)cnn2C1 [Example 55, 3-amino-6-(5-(5,5-dimethyl-5,6-dihydro-4H-pyrrolo[1,2-b]pyrazol-3-yl)-2-hydroxyphenyl)-N-((3S,5S)-5-fluoropiperidin-3-yl)pyrazine-2-carboxamide] | – |
| 0.01 to 0.1 | 10 to 100 | Nc1ncc(-c2cc(-c3cnn(CC(F)(F)F)c3)ccc2F)nc1C(=O)N[C@H]1CCC2(CC2)NC1 [Example 8, (S)-3-amino-6-(2-fluoro-5-(1-(2,2,2-trifluoroethyl)-1H-pyrazol-4-yl)phenyl)-N-(4-azaspiro[2.5]octan-6-yl)pyrazine-2-carboxamide] | – |
| ≤ 0.01 | 10 to 100 | CC1(C)Cc2c(-c3cc(-c4cnc(N)c(C(=O)N[C@H]5CCC6(CC6)NC5)n4)ccn3)cnn2C1 [Example 50, (S)-3-amino-6-(2-(5,5-dimethyl-5,6-dihydro-4H-pyrrolo[1,2-b]pyrazol-3-yl)pyridin-4-yl)-N-(4-azaspiro[2.5]octan-6-yl)pyrazine-2-carboxamide] | – |
| ≤ 0.01 | – | CC(C)(O)Cn1cc(-c2cc(-c3cnc(N)c(C(=O)NC4CNC[C@@H](F)C4)n3)ccn2)cn1 (stereo partly drawn) [Example 6, 3-amino-N-((3S,5S)-5-fluoropiperidin-3-yl)-6-(2-(1-(2-hydroxy-2-methylpropyl)-1H-pyrazol-4-yl)pyridin-4-yl)pyrazine-2-carboxamide] | IC50 [1, 3]: 10 to 100 µM |
| > 1 | ≤ 10 | Nc1ncc(-c2cc(-c3cnn(CC(F)(F)F)c3)ccc2F)nc1C(=O)N[C@@H]1CNCC(F)(F)C1 [Example 12, (S)-3-amino-N-(5,5-difluoropiperidin-3-yl)-6-(2-fluoro-5-(1-(2,2,2-trifluoroethyl)-1H-pyrazol-4-yl)phenyl)pyrazine-2-carboxamide] | – |
| 0.01 to 0.1 | 10 to 100 | Nc1ncc(-c2cc(-c3cnn(CC(F)(F)F)c3)ncc2F)nc1C(=O)N[C@H]1CCCNC1 [Example 1, (S)-3-amino-6-(5-fluoro-2-(1-(2,2,2-trifluoroethyl)-1H-pyrazol-4-yl)pyridin-4-yl)-N-(piperidin-3-yl) pyrazine-2-carboxamide] | – |
| ≤ 0.01 | 10 to 100 | CC1(C)Cc2c(-c3ccc(O)c(-c4cnc(N)c(C(=O)N[C@H]5CCC6(CC6)NC5)n4)c3)cnn2C1 [Example 56, (S)-3-amino-6-(5-(5,5-dimethyl-5,6-dihydro-4H-pyrrolo[1,2-b]pyrazol-3-yl)-2-hydroxyphenyl)-N-(4-azaspiro[2.5]octan-6-yl)pyrazine-2-carboxamide] | – |
| 0.01 to 0.1 | > 100 | CC1(C)Cc2c(-c3cc(-c4cnc(N)c(C(=O)N[C@@H]5CNCC[C@H]5O)n4)ccn3)cnn2C1 [Example 53, 3-amino-6-(2-(5,5-dimethyl-5,6-dihydro-4H-pyrrolo[1,2-b]pyrazol-3-yl)pyridin-4-yl)-N-((3R,4R)-4-hydroxypiperidin-3-yl)pyrazine-2-carboxamide] | – |

More lines, now with the values behind:

| Structure (SMILES) | IC50 [2] [µM] | IC50 [1, 4] [µM] | also measured |
| --- | --- | --- | --- |
| CC1(C)Cc2c(-c3cccc(-c4cnc(N)c(C(=O)N[C@@H]5CNCCC5(F)F)n4)c3)cnn2C1 [Example 58, 3-amino-N-(4,4-difluoropiperidin-3-y)-6-(3-(5,5-dimethyl-5,6-dihydro-4H-pyrrolo[1,2-b]pyrazol-3-yl)phenyl)pyrazine-2-carboxamide] | ≤ 0.01 | 10 to 100 | – |
| CC1(C)Cc2c(-c3cccc(-c4cnc(N)c(C(=O)N[C@@H]5CNCC[C@H]5O)n4)c3)cnn2C1 [Example 52, 3-amino-6-(3-(5,5-dimethyl-5,6-dihydro-4H-pyrrolo[1,2-b]pyrazol-3-yl)phenyl)-N-((3R,4R)-4-hydroxypiperidine-3-yl)pyrazine-2-carboxamide] | 0.01 to 0.1 | 10 to 100 | – |
| Nc1ncc(-c2cc(-c3cnn(CC(F)(F)F)c3)ccc2F)nc1C(=O)N[C@@H]1CNCC[C@H]1O [Example 10, 3-amino-6-(2-fluoro-5-(1-(2,2,2-trifluoroethyl)-1H-pyrazol-4-yl)phenyl)-N-((3R,4R)-4-hydroxypiperidin-3-yl) pyrazine-2-carboxamide] | 0.01 to 0.1 | 10 to 100 | – |
| N.N.[Cl][Pt][Cl] [cisplatin, reference compound] | – | – | IC50 ([1]; alone, read-out: Administered alone (IC50)): 26 µM |
| CC1(C)Cc2c(-c3cc(-c4cnc(N)c(C(=O)N[C@H]5CCCNC5)n4)ccn3)cnn2C1 [Example 49, (S)-3-amino-6-(2-(5,5-dimethyl-5,6-dihydro-4H-pyrrolo[1,2-b]pyrazol-3-yl)pyridin-4-yl)-N-(piperidin-3-yl)pyrazine-2-carboxamide] | ≤ 0.01 | 10 to 100 | – |
| Nc1ncc(-c2ccnc(-c3cnn(CC(F)(F)F)c3)c2)nc1C(=O)N[C@@H]1CNCC(F)(F)C1 [Example 13, (S)-3-amino-N-(5,5-difluoropiperidin-3-yl)-6-(2-(1-(2,2,2-trifluoroethyl)-1H-pyrazol-4-yl)pyridin-4-yl)pyrazine-2-carboxamide] | 0.1 to 1 | ≤ 10 | IC50 [1, 5]: 8.59 µM; IC50 ([1]; combination with cisplatin, read-out: Administered in combination with cisplatin (IC50)): 2.93 µM; IC50 ([1]; combination with doxorubicin, read-out: Administered in combination with doxorubicin (IC50)): 0.91 µM |
| CC1(C)Cc2c(-c3cccc(-c4cnc(N)c(C(=O)N[C@@H]5CNCCOC5)n4)c3)cnn2C1 (stereo in doubt) [Example 61, 3-amino-6-(3-(5,5-dimethyl-5,6-dihydro-4H-pyrrolo[1,2-b]pyrazol-3-yl)phenyl)-N-(1,4-oxazepan-6-yl)pyrazine-2-carboxamide] | ≤ 0.01 | > 100 | – |
| Nc1ncc(-c2cc(-c3cnn(CC(F)(F)F)c3)ncc2F)nc1C(=O)N[C@@H]1CNCC[C@H]1O [Example 3, 3-amino-6-(5-fluoro-2-(1-(2,2,2-trifluoroethyl)-1H-pyrazol-4-yl)pyridin-4-yl)-N-((3R,4R)-4-hydroxypiperidin-3-yl)pyrazine-2-carboxamide] | ≤ 0.01 | 10 to 100 | – |
| COc1cccc2c1C(=O)c1c(O)c3c(c(O)c1C2=O)C[C@@](O)(C(=O)CO)C[C@@H]3O[C@H]1C[C@H](N)[C@H](O)[C@H](C)O1 [doxorubicin, reference compound] | – | – | IC50 [1, 5]: 1.5 µM |
| CC1(C)Cc2c(-c3cccc(-c4cnc(N)c(C(=O)N[C@H]5CNC[C@@H]5F)n4)c3)cnn2C1 [Example 62, 3-amino-6-(3-(5,5-dimethyl-5,6-dihydro-4H-pyrrolo[1,2-b]pyrazol-3-yl)phenyl)-N-((3S,4S)-4-fluoropyrrolidin-3-yl) pyrazine-2-carboxamide] | 0.01 to 0.1 | 10 to 100 | – |
| Nc1ncc(-c2cc(-c3cnn(CC(F)(F)F)c3)ccc2O)nc1C(=O)N[C@H]1CCCNC1 [Example 24, (S)-3-amino-6-(2-hydroxy-5-(1-(2,2,2-trifluoroethyl)-1H-pyrazol-4-yl)phenyl)-N-(piperidin-3-yl) pyrazine-2-carboxamide] | ≤ 0.01 | 10 to 100 | – |
| CC(C)(O)Cn1cc(-c2cc(-c3cnc(N)c(C(=O)NC4CNC[C@@H](F)C4)n3)ccn2)cn1 (stereo partly drawn) [Example 34, 3-amino-N-((3S,5S)-5-fluoropiperidin-3-yl)-6-(2-(1-(2-hydroxy-2-methylpropyl)-1H-pyrazol-4-yl)pyridin-4-yl)pyrazine-2-carboxamide] | – | 10 to 100 | – |
